# Laboratory results from article PMC11284203 (Scientific Reports, 2024).
# Entries after “also recorded” stand apart in the source; their conditions may differ.
# Target: T1, α-glucosidase (Saccharomyces cerevisiae, UniProt P53341)
# Test: not given
# Conditions: Lineweaver–Burk plot
# T1 sequence (P53341 whole entry): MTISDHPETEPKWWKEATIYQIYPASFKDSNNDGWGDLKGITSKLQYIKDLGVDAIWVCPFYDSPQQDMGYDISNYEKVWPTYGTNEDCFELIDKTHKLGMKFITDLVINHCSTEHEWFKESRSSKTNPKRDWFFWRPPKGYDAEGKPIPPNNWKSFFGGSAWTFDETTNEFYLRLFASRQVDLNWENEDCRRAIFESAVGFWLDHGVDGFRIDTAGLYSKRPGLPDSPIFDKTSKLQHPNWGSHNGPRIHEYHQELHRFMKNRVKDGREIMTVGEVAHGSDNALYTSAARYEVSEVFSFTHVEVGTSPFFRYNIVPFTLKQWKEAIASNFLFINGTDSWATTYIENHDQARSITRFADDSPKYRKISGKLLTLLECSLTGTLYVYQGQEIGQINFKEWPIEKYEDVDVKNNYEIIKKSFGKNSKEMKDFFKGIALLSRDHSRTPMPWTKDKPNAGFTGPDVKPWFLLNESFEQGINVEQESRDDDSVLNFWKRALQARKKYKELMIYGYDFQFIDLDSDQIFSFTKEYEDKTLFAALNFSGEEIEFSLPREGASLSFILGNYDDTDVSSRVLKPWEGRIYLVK
row,Compound,mode of inhibition
1,"COc1ccc2nc3cc(Cl)ccc3c(SCc3cn(Cc4ccc(F)cc4)nn3)c2c1 [Compound 7h, 9-((1-(4-fluorobenzyl)-1H-1,2,3-triazol-4-yl)methylthio)-6-chloro-2-methoxyacridine]",competitive inhibitor; also recorded: competitive inhibition

# Target: T1, α-glucosidase
# Test: biochemical
# Conditions: not given
row,Ki,Compound
1,98 µM,"COc1ccc2nc3cc(Cl)ccc3c(SCc3cn(Cc4ccc(F)cc4)nn3)c2c1 [Compound 7h, 9-((1-(4-fluorobenzyl)-1H-1,2,3-triazol-4-yl)methylthio)-6-chloro-2-methoxyacridine]"

# Target: T1, α-glucosidase
# Test: α-glucosidase inhibition assay
# Conditions: not given
row,Compound,IC50
1,"COc1ccc2nc3cc(Cl)ccc3c(SCc3cn(Cc4cccc(Cl)c4Cl)nn3)c2c1 [Compound 7k, 9-((1-(2,3-dichlorobenzyl)-1H-1,2,3-triazol-4-yl)methylthio)-6-chloro-2-methoxyacridine]",> 750 µM
2,"COc1ccc2nc3cc(Cl)ccc3c(SCc3cn(Cc4ccccc4Cl)nn3)c2c1 [Compound 7i, 9-((1-(2-chlorobenzyl)-1H-1,2,3-triazol-4-yl)methylthio) -6-chloro-2-methoxyacridine]",> 750 µM
3,"COc1ccc2nc3cc(Cl)ccc3c(SCc3cn(Cc4ccc([N+](=O)[O-])cc4)nn3)c2c1 [Compound 7n, 9-((1-(4-nitrobenzyl)-1H-1,2,3-triazol-4-yl)methylthio) -6-chloro-2-methoxyacridine]",> 750 µM
4,"COc1ccc(Cn2cc(CSc3c4ccc(Cl)cc4nc4ccc(OC)cc34)nn2)cc1 [Compound 7c, 9-((1-(4-methoxybenzyl)-1H-1,2,3-triazol-4-yl)methylthio)-6-chloro-2-methoxyacridine]",> 750 µM
5,"COc1cccc(Cn2cc(CSc3c4ccc(Cl)cc4nc4ccc(OC)cc34)nn2)c1 [Compound 7b, 9-((1-(3-methoxybenzyl)-1H-1,2,3-triazol-4-yl)methylthio)-6-chloro-2-methoxyacridine]",> 750 µM
6,"COc1ccc2nc3cc(Cl)ccc3c(SCc3cn(Cc4ccccc4[N+](=O)[O-])nn3)c2c1 [Compound 7m, 9-((1-(2-nitrobenzyl)-1H-1,2,3-triazol-4-yl)methylthio)-6-chloro-2methoxyacridine]",> 750 µM
7,"COc1ccc2nc3cc(Cl)ccc3c(SCc3cn(Cc4cccc(C)c4)nn3)c2c1 [Compound 7e, 6-chloro-2-methoxy-9-(((1-(3-methylbenzyl)-1H-1,2,3-triazol-4-yl)methyl)thio)acridine]",> 750 µM

# The next compounds have a lower IC50 than those just listed; values first:
row,IC50,Compound
1,302.8 ± 0.6 µM,"COc1ccc2nc3cc(Cl)ccc3c(SCc3cn(Cc4ccccc4Br)nn3)c2c1 [Compound 7j, 9-((1-(2-bromobenzyl)-1H-1,2,3-triazol-4-yl)methylthio)-6-chloro-2-methoxyacridine]"
2,229.2 ± 1.3 µM,"COc1ccc2nc3cc(Cl)ccc3c(SCc3cn(Cc4ccc(Cl)cc4Cl)nn3)c2c1 [Compound 7l, 9-((1-(2,4-dichlorobenzyl)-1H-1,2,3-triazol-4-yl)methylthio)-6-chloro-2-methoxyacridine]"
3,482 ± 0.2 µM,"COc1ccc2nc3cc(Cl)ccc3c(SCc3cn(Cc4ccccc4C)nn3)c2c1 [Compound 7d, 6-chloro-2-methoxy-9-(((1-(2-methylbenzyl)-1H-1,2,3-triazol-4yl)methyl)thio)acridine]"
4,123.1 ± 0.8 µM,"COc1ccc2nc3cc(Cl)ccc3c(SCc3cn(Cc4ccc(C)cc4)nn3)c2c1 [Compound 7f, 6-chloro-2-methoxy-9-(((1-(4-methylbenzyl)-1H-1,2,3-triazol-4-yl)methyl)thio) acridine]"
5,169.1 ± 0.9 µM,"COc1ccc2nc3cc(Cl)ccc3c(SCc3cn(Cc4ccccc4)nn3)c2c1 [Compound 7a, 9-((1-benzyl-1H-1,2,3-triazol-4-yl)methylthio)-6-chloro-2-methoxyacridine]"
6,164 ± 0.6 µM,"COc1ccc2nc3cc(Cl)ccc3c(SCc3cn(Cc4cccc(F)c4)nn3)c2c1 [Compound 7g, 9-((1-(3-fluorobenzyl) -1H-1,2,3-triazol-4-yl)methylthio) -6-chloro-2-methoxyacridine]"
7,98 ± 0.3 µM,"COc1ccc2nc3cc(Cl)ccc3c(SCc3cn(Cc4ccc(F)cc4)nn3)c2c1 [Compound 7h, 9-((1-(4-fluorobenzyl)-1H-1,2,3-triazol-4-yl)methylthio)-6-chloro-2-methoxyacridine]"
